Counter-ions that a name gives are not always drawn. Like-named read-outs stand apart in the source and are kept apart here.
Experiments:
[1] = test system: P. falciparum CQ-sensitive strain 3D7; assay: In vitro antiplasmodial activity, SYBR Green I fluorescence-based method, 3D7 strain; format: cell-based, Plasmodium falciparum; conditions: for IC50: chloroquine-sensitive strain 3D7, 48 h incubation, read-out: P. falciparum strains IC50 values, 3D7; for Selectivity Index HepG2/3D7: ratio CC50 HepG2 / IC50 3D7
Description: (§1) The in vitro antiplasmodial activities were tested over concentrations ranging from 39 nM to 40 μM against culture-adapted Plasmodium falciparum reference strains 3D7 and W2. […] The parasites were cultivated in RPMI medium (Sigma-Aldrich, Lyon, France) supplemented with 0.5% Albumax I (Life Technologies corporation, Paisley, United Kingdom), hypoxanthine (Sigma-Aldrich), gentamicin (Sigma-Aldrich), and human erythrocytes and were incubated at 37 °C in a candle jar, as described previously. The P. falciparum drug susceptibility test was carried out in 96-well flat bottom sterile plates under a final volume of 250 μL. After a 48 h incubation with the drugs, quantities of DNA in treated and control cultures of parasites in human erythrocytes were compared according to the SYBR Green I (Sigma-Aldrich) fluorescence-based method[38]^,[39]. Briefly, after incubation, plates were frozen at -20 °C until use. They were then left to thaw for 2 h at room temperature and 100 μL of the homogenized culture were transferred to 96-well flat bottom sterile black plates (Nunc Inc) already containing 100 μL of the SYBR Green I lysis buffer (2xSYBR Green, 20 mM Tris base pH 7.5, 5 mM EDTA, 0.008% w/v saponin, 0.08% w/v Triton X-100). […] Plates were incubated for 1 h at room temperature and then read on a fluorescence plate reader (Tecan, Austria) using excitation and emission wavelengths of 485 and 535 nm, respectively.

[2] = Cytotoxicity evaluation, MTT assay; format: cell-based, human; conditions: human, HepG2 cells (hepatocarcinoma cell line, ATCC HB-8065); HepG2, 72 h incubation, mean ± SD of three independent experiments
Description: These assays were performed toward the human HepG2 cell line (HepG2 CC50). […] These cells express many of the hepatocyte-specific metabolic enzymes, thus enabling the cytotoxicity of tested product metabolites to be evaluated. […] Duplicate assays were performed for each sample. Each plate-well was then microscope-examined for detecting possible precipitate formation before the medium was aspirated from the wells. 100 μL of MTT solution (0.5 mg/mL in medium without FCS) were then added to each well. […] After this time, the MTT solution was removed and DMSO (100 μL) was added to dissolve the resulting blue formazan crystals. Plates were shaken vigorously (300 rpm) for 5 minutes. The absorbance was measured at 570 nm with 630 nm as reference wavelength spectrophotometer using a BIO-TEK ELx808 Absorbance Microplate Reader. DMSO was used as blank and doxorubicin (Sigma Aldrich) as positive control. Cell viability was calculated as percentage of control (cells incubated without compound). The 50% cytotoxic concentration was determined from the dose-response curve by using the TableCurve 2D V5.0 software (Systat Software, San Jose, CA).

[3] = test system: P. falciparum CQ-resistant strain W2; assay: In vitro antiplasmodial activity, SYBR Green I fluorescence-based method, W2 strain; format: cell-based, Plasmodium falciparum; conditions: for IC50: Plasmodium falciparum, chloroquine-resistant strain W2, 48 h incubation, read-out: P. falciparum strains IC50 values, W2; for Selectivity Index HepG2/W2: ratio CC50 HepG2 / IC50 W2
Description: as §1

[4] = test system: L. donovani (MHOM/IN/00/DEVI) promastigotes; assay: In vitro antileishmanial activity on promastigotes, MTT assay; format: cell-based; conditions: Leishmania donovani, 72 h incubation, mean ± SD of three independent experiments
Description: L. donovani (MHOM/IN/00/DEVI) used in this study was provided by the CNR Leishmania (Montpellier, France). The effects of the tested compounds on the growth of L. donovani (MHOM/IN/00/DEVI)promastigotes were assessed by MTT assay[41] .Briefly, promastigotes in log-phase in Schneider′s medium supplemented with 20% fetal calf serum (FCS), 2 mM L-glutamine and antibiotics (100 U/mL penicillin and 100 μg/mL streptomycin), were incubated at an average density of 10^6 parasites/mL in sterile 96-well plates with various concentrations of compounds dissolved in DMSO (final concentration less than 0.5% v/v), in duplicate. Appropriate controls treated by DMSO and pentamidine or amphotericin B (reference drugs purchased from Sigma-Aldrich) were added to each set of experiments. After a 72 h incubation period at 27 °C, parasite metabolic activity was determined. Each plate-well was then microscope-examined for detecting possible precipitate formation. 20 μL of MTT 3–(4,5-dimethylthiazol-2-yl)-2,5-diphenyltetrazolium bromide) solution (5 mg/mL) were added to each well followed by incubation for another 4 h. The enzyme reaction was then stopped by addition of 100 μL of 50% isopropanol – 10% sodium dodecyl sulfate[42] .Plates were shaken vigorously (300 rpm) for 10 minutes and the absorbance measured in a plate reader at 570 nm in a BIO-TEK ELx808 Absorbance Microplate Reader. […] IC50 were calculated by non-linear regression analysis processed on doseresponse curves, using TableCurve 2D V5.0 software. IC50 values represent the mean value calculated from three independent experiments.

[5] = Plasmodium falciparum, 3D7, 48 h

c1ccc2c(c1)nc(-c1ccc(CNCCCNCCCNCc3ccc(-c4nc5ccccc5n5cccc45)cc3)cc1)c1cccn12 (as salt: ammonium) [1a, Bis{N-[4-(pyrrolo[1,2-a]quinoxalin-4-yl)benzyl]-3-aminopropyl}amine]
melting point: > 260 °C

CN(CCCNCc1ccc(-c2nc3ccccc3n3cccc23)cc1)CCCNCc1ccc(-c2nc3ccccc3n3cccc23)cc1 (as salt: ammonium) [1b, Bis{N-[4-(pyrrolo[1,2-a]quinoxalin-4-yl)benzyl]-3-aminopropyl}methylamine]
melting point: 245 to 248 °C

c1ccc2c(c1)nc(-c1ccc(CNCCCN3CCN(CCCNCc4ccc(-c5nc6ccccc6n6cccc56)cc4)CC3)cc1)c1cccn12 (as salt: ammonium) [1c, Bis{N-[4-(pyrrolo[1,2-a]quinoxalin-4-yl)benzyl]-3-aminopropyl}piperazine]
melting point: > 260 °C

COc1ccc2nc(-c3ccc(CNCCCN(C)CCCNCc4ccc(-c5nc6ccc(OC)cc6n6cccc56)cc4)cc3)c3cccn3c2c1 (as salt: ammonium) [1f, Bis{N-[4–(8-methoxypyrrolo[1,2-a]quinoxalin-4-yl)benzyl]-3-aminopropyl}methylamine]
melting point: 240 to 242 °C

COc1ccc2nc(-c3ccc(CNCCCN4CCN(CCCNCc5ccc(-c6nc7ccc(OC)cc7n7cccc67)cc5)CC4)cc3)c3cccn3c2c1 (as salt: ammonium) [1g, Bis{N-[4–(8-methoxypyrrolo[1,2-a]quinoxalin-4-yl)benzyl]-3-aminopropyl}piperazine]
melting point: 236 to 239 °C

COc1cccc2nc(-c3ccc(CNCCCN(C)CCCNCc4ccc(-c5nc6cccc(OC)c6n6cccc56)cc4)cc3)c3cccn3c12 (as salt: ammonium) [1h, Bis{N-[4–(9-methoxypyrrolo[1,2-a]quinoxalin-4-yl)benzyl]-3-aminopropyl}methylamine]
melting point: 160 to 162 °C

CCOc1ccn2c1c(-c1ccc(CNCCCN(C)CCCNCc3ccc(-c4nc5ccccc5n5ccc(OCC)c45)cc3)cc1)nc1ccccc12 (as salt: ammonium) [1j, Bis{N-[4–(3-ethoxypyrrolo[1,2-a]quinoxalin-4-yl)benzyl]-3-aminopropyl}methylamine]
melting point: 192 to 195 °C

CCOc1ccn2c1c(-c1ccc(CNCCCN3CCN(CCCNCc4ccc(-c5nc6ccccc6n6ccc(OCC)c56)cc4)CC3)cc1)nc1ccccc12 (as salt: ammonium) [1k, Bis{N-[4–(3-ethoxypyrrolo[1,2-a]quinoxalin-4-yl)benzyl]-3-aminopropyl}piperazine]
melting point: 218 to 220 °C

CN(CCCNCc1cccc(-c2nc3ccccc3n3cccc23)c1)CCCNCc1cccc(-c2nc3ccccc3n3cccc23)c1 (as salt: ammonium) [1m, Bis{N-[3-(pyrrolo[1,2-a]quinoxalin-4-yl)benzyl]-3-aminopropyl}methylamine]
melting point: 209 to 211 °C

COc1ccc2nc(-c3cccc(CNCCCN(C)CCCNCc4cccc(-c5nc6ccc(OC)cc6n6cccc56)c4)c3)c3cccn3c2c1 (as salt: ammonium) [1o, Bis{N-[3–(8-methoxypyrrolo[1,2-a]quinoxalin-4-yl)benzyl]-3-aminopropyl}methylamine]
melting point: 188 to 191 °C

COc1ccc2nc(-c3cccc(CNCCCN4CCN(CCCNCc5cccc(-c6nc7ccc(OC)cc7n7cccc67)c5)CC4)c3)c3cccn3c2c1 (as salt: ammonium) [1p, Bis{N-[3–(8-methoxypyrrolo[1,2-a]quinoxalin-4-yl)benzyl]-3-aminopropyl}piperazine]
melting point: 234 to 237 °C

c1ccc2c(c1)cc1c(-c3ccc(CNCCCN4CCN(CCCNCc5ccc(-c6nc7ccccc7n7c6cc6ccccc67)cc5)CC4)cc3)nc3ccccc3n12 (as salt: ammonium) [1q, Bis{N-[4-(indolo[1,2-a]quinoxalin-6-yl)benzyl]-3-aminopropyl}piperazine]
melting point: > 260 °C

COc1ccc2c(c1)nc(-c1ccc(CNCCCN(CCCNCc3ccc(-c4nc5cc(OC)ccc5n5cccc45)cc3)CCCNCc3ccc(-c4nc5cc(OC)ccc5n5cccc45)cc3)cc1)c1cccn12 (as salt: ammonium) [1s, Tris{N-[4–(7-methoxypyrrolo[1,2-a]quinoxalin-4-yl)benzyl]-3-aminopropyl}amine]
melting point: 192 to 194 °C

COc1ccc2nc(-c3cccc(CNCCCN(CCCNCc4cccc(-c5nc6ccc(OC)cc6n6cccc56)c4)CCCNCc4cccc(-c5nc6ccc(OC)cc6n6cccc56)c4)c3)c3cccn3c2c1 (as salt: ammonium) [1t, Tris{N-[3–(8-methoxypyrrolo[1,2-a]quinoxalin-4-yl)benzyl]-3-aminopropyl}amine]
melting point: 184 to 187 °C

COc1ccc2nc(-c3cccc(CNCCOCCOCCOCCNCc4cccc(-c5nc6ccc(OC)cc6n6cccc56)c4)c3)c3cccn3c2c1 (as salt: ammonium) [1u, N,N′-[oxybis(2,1-ethanediyloxy-2,1-ethanediyl)]bis-3–(8-methoxypyrrolo[1,2-a]quinoxalin-4-yl)benzylamine]
melting point: 141 to 144 °C

COc1ccc2c(c1)nc(-c1ccc(CNCCCN(CCCNCc3ccc(-c4nc5cc(OC)ccc5n5cccc45)cc3)CCCNCc3ccc(-c4nc5cc(OC)ccc5n5cccc45)cc3)cc1)c1cccn12 [1s, Tris{N-[4–(7-methoxypyrrolo[1,2-a]quinoxalin-4-yl)benzyl]-3-aminopropyl}amine]
IC50 [1, 5]: 200 ± 40 nM
Selectivity Index HepG2/3D7 [1]: 8.30
CC50 at 72 h [2]: 1660 ± 500 nM
IC50 [3]: 290 ± 50 nM
Selectivity Index HepG2/W2 [3]: 5.72
IC50 [4]: ≥ 10000 nM

COc1ccc2nc(-c3cccc(CNCCCN(CCCNCc4cccc(-c5nc6ccc(OC)cc6n6cccc56)c4)CCCNCc4cccc(-c5nc6ccc(OC)cc6n6cccc56)c4)c3)c3cccn3c2c1 [1t, Tris{N-[3–(8-methoxypyrrolo[1,2-a]quinoxalin-4-yl)benzyl]-3-aminopropyl}amine]
IC50 [1, 5]: 240 ± 30 nM
Selectivity Index HepG2/3D7 [1]: 7.17
CC50 at 72 h [2]: 1720 ± 600 nM
IC50 [3]: 190 ± 20 nM
Selectivity Index HepG2/W2 [3]: 9.05
IC50 [4]: ≥ 10000 nM

COc1ccc2nc(-c3cccc(CNCCOCCOCCOCCNCc4cccc(-c5nc6ccc(OC)cc6n6cccc56)c4)c3)c3cccn3c2c1 [1u, N,N′-[oxybis(2,1-ethanediyloxy-2,1-ethanediyl)]bis-3–(8-methoxypyrrolo[1,2-a]quinoxalin-4-yl)benzylamine]
IC50 [1, 5]: ~80 nM
IC50 [1]: 76 ± 9 nM
Selectivity Index HepG2/3D7 [1]: 20.26
CC50 at 72 h [2]: 1540 ± 700 nM
IC50 [3]: 250 ± 80 nM
Selectivity Index HepG2/W2 [3]: 6.16
IC50 [4]: ≥ 10000 nM
